Data set [1] is described as follows: Uptake and phloem movement of fluorescent test substances applied onto lased citrus leaves (fluorescent microscopy). The class given is in vivo. An excerpt: To illustrate the effectiveness of the methods disclosed herein, a test substance was used to show the enhanced penetration through foliar application. Among test substances, phloem mobile compounds NBDG, a fluorescent analog of glucose (a natural sugar found in plants), and carboxyfluorescin-SE (a membrane permeable substance only fluorescent in live cells) were used in an experiment. Both substances were manually applied onto lased leaves (using a 13×39 dot indentation pattern 801) at a concentration of 5 mg/mL.
FIGS. 8A-8B were observed under fluorescent microscopy and FIG. 8B was taken 10 minutes after the application of 5 μL of NBDG.
Within 2 h, fluorescent NBDG was observed within the lateral veins of the lased leaves (shown in FIGS. 9A-9B) emerging from the application area. FIGS. 9A-9B are fluorescent micrographs of a portion of a lased citrus leaf. […] FIG. 9B is another image showing the NBDG in a minor veins 903 and main vein 905.
It should be appreciated that movement of the foliarly applied NBDG continued down the stem and towards the roots. […] FIGS. 11A-11B show bark sections of young trees. […] The distance between the lased leaves and bark segment 1103 was approximately 20 cm.

Another data set relates to HLB bacteria. Description: PCR analysis for presence of HLB in leaves of lased and antimicrobial-treated citrus trees. In kind it is in vivo. The note with it: 2 fluid ounces per tree, 0-29 = HLB detected, 30 and above = no HLB detected; for Presence of HLB using PCR analysis, Sample A: lased and treated leaves; for Presence of HLB using PCR analysis, Sample B: leaves at furthest point from lased leaves, not lased or treated. The method, then: The following experimental data is provided to exemplarily illustrate various aspects of the inventive subject matter presented herein. More specifically, the data illustrates the surprising uptake of antimicrobials to effectively treat a plant. Citrus trees were tested in three groups consisting of a control group (trees 1-6), an antimicrobial plus surfactant group (trees 7-12), and an antimicrobial only group (trees 13-18). The trees in each group were lased and, in some instances, treated with an antimicrobial, and analyzed two weeks later to determine the amount of HLB present in the tree using Polymerase Chain Reaction (“PCR”) analysis. It should be noted that all the trees in this experiment had HLB at the beginning of the experiment. The antimicrobial used was oxytetracycline (FireLine™) that includes a surfactant (Tactit) for the antimicrobial plus surfactant group, and oxytetracycline without a surfactant for the antimicrobial only group. The laser parameters included a jump speed of 2000 mm/s, marking speed 850 mm/s, and marking intensity: 70%, and a pulse frequency of 15000 Hz.
The control group (trees 1-6) was lased, but not treated with any antimicrobials and/or surfactants. With the exception of one tree (tree 7) that was only lased, the antimicrobial plus surfactant group was lased and treated with an antimicrobial that comprised a surfactant. With the exception of one tree (tree 13) that was only lased, the antimicrobial only group was lased and treated with only an antimicrobial (with no surfactant). The trees in each group were lased on only one side of the tree (the side comprising the “A” samples). If an antimicrobial (with or without surfactant) was applied, such antimicrobial was applied to the side of the tree that was lased. The antimicrobials were prepared at 200 ppm, 500 ppm, 1000 ppm, 1500 ppm, and 2000 ppm in a 1 gallon volume. Only 2 fluid ounces per tree (10 fluid ounces per group of trees) was used of each concentration for this experiment.
After two weeks, leaves that were lased and, in some instances, treated with an antimicrobial were sampled and analyzed. Additionally, leaves located at the furthest point from the lased leaves (the side comprising the “B” samples), which were not directly lased and/or treated, were sampled and analyzed. Leaves were grinded and prepared for PCR analysis for detecting the presence of HLB. PCR determines if there is live HLB DNA. PCR analysis amplifies and copies small segments of DNA. It then yields enough sample DNA to run the analysis. With this experiment there are six trees per treatment group (control group, antimicrobial plus surfactant group, and antimicrobial only group). Each tree falls under two ranges for determining HLB content, values 29 and lower are considered HLB positive (greening) and values 30 and over are trees considered HLB negative (non-greening). If the analysis takes over 30 PCR cycles then it cannot find any target HLB DNA. If the analysis runs against the maximum of 40 PCR cycles then it becomes indeterminate and it could not find one copy of HLB. It should be noted that there could be numbers over “30” but still be no presence of HLB because there are only artifacts of dead HLB bacteria DNA in numbers over “30”.

[2] abbreviates: 200 ppm, without surfactant, tree 14, two weeks.
Setting [3] is: 500 ppm, without surfactant, tree 15, two weeks.
[4] abbreviates: 1000 ppm, without surfactant, tree 16, two weeks.
Setting [5] is: 2000 ppm, with surfactant (Tactit), tree 12, two weeks.

Experimental findings from patent publication US11178823B2, “Systems and methods for using light energy to facilitate penetration of substances in plants” (priority 2014, dated 2021) are described below.

Molecules are shown by their SMILES.

On to `O=[N+]([O-])c1ccc(N[C@H]2C(O)O[C@H](CO)[C@@H](O)[C@@H]2O)c2nonc12` (stereo partly shown) [NBDG], for which, in data set [1] (applied to the surface of un-lased leaves), the “Uptake into un-lased control leaf (fluorescence)” value was “no fluorescence”. Also, the “Time until fluorescence observed in the phloem of bark tissue” value in data set [1] (bark approximately 20 cm from the treated lased leaf, young trees) is given as no more than 8 h. Further, the “Time until fluorescence observed within the lateral veins of the lased leaves” value in data set [1] (lased citrus leaf, 5 mg/mL, emerging from the application area) is no more than 2 h. For the same molecule, the “Movement in the leaf four hours after application” value in data set [1] (lased citrus leaf, 5 mg/mL, four hours after application) is “reached and passed the base of the petiole”. Besides, the “Uptake into lased leaf (fluorescence)” value in data set [1] (lased citrus leaf, 13×39 dot indentation pattern, 5 mg/mL, 5 μL, 10 minutes after application) is recorded as “spread of fluorescence within the lased area”.
Consider `CN(C)[C@@H]1C(O)=C(C(N)=O)C(=O)[C@@]2(O)C(O)=C3C(=O)c4c(O)cccc4[C@@](C)(O)[C@H]3[C@H](O)[C@@H]12` [oxytetracycline], for which the “Presence of HLB using PCR analysis, Sample A” value in the data set on HLB bacteria (200 ppm, with surfactant (Tactit), tree 8, two weeks after treatment) worked out at 30.6; in the data set with HLB bacteria (setting [2]) it was 27.0; in the data set with HLB bacteria (500 ppm, with surfactant (Tactit), tree 9, two weeks) it was 35.4; in the data set on HLB bacteria (setting [3]), 34.7; in the data set on HLB bacteria (setting [4]), 37.8; in the data set with HLB bacteria (setting [5]), 37.6. The “Presence of HLB using PCR analysis, Sample B” value in the data set on HLB bacteria (200 ppm, with surfactant (Tactit), tree 8, two weeks) was 33.5; in the data set on HLB bacteria (setting [2]), 26.1; in the data set on HLB bacteria (setting [3]), 26.6; in the data set on HLB bacteria (setting [4]), 28.7; with HLB bacteria (1500 ppm, with surfactant (Tactit), tree 11, two weeks), 36.8; with HLB bacteria (1500 ppm, without surfactant, tree 17, two weeks), 26.2. In addition, the “Presence of HLB using PCR analysis, Sample B” value is 36.1 in the data set with HLB bacteria (setting [5]) and 27.6 in the data set on HLB bacteria (2000 ppm, without surfactant, tree 18, two weeks).
